Usually IC50 stands for the point on the concentration scale where inhibition reaches its midpoint.

This passage reports IC50 results from patent US11267824B2, “Inhibitors of indoleamine 2,3-dioxygenase and/or tryptophan 2,3-dioxygenase” (IDORSIA PHARMACEUTICALS LTD, priority 2017, dated 2022).

The target in experiment [1] is Recombinant full-length human IDO1 (Homo sapiens (Human), UniProt P14902). The experiment in a line: IDO1 enzymatic assay (IDO inhibitory activity). In kind it is biochemical. To be noted: 2 nM enzyme, 5 μM L-tryptophan, pH6.5, 30 min pre-incubation, NFK quantified by LCMS; mean values if measured multiple times; read-out: hIDO activity (IC50 in nM). The essentials:
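N-His-tagged enzyme from E. coli at 2 nM in 37.5 mM phosphate pH6.5 with ascorbate, methylene blue, catalase; compounds 10 μM–0.5 nM, 0.6% DMSO, pre-incubated 30 min RT, then 5 μM L-tryptophan for 30 min RT. NFK quantified by LCMS against d5-tryptophan; IC50 from duplicate four-parameter fit, means where repeated.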

The target of experiment [2] is Recombinant human TDO comprising amino acids 19-407 (Homo sapiens (Human), UniProt P48775). Kind of experiment: TDO2 enzymatic assay (TDO inhibitory activity). In kind it is biochemical. To be noted: 15 nM enzyme, 200 μM L-tryptophan, pH7, 30 min pre-incubation, NFK quantified by LCMS; mean values if measured multiple times; read-out: hTDO activity (IC50 in nM). The method, boiled down: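 His-tagged enzyme (15 nM, E. coli-expressed) in pH 7 phosphate buffer with ascorbate, catalase, BSA, Tween 20, 0.6% DMSO; 30 min RT pre-incubation with compound (10 μM–0.5 nM), then 200 μM L-tryptophan for 30 min RT. N′-formylkynurenine quantified by LCMS against deuterated tryptophan; IC50 by four-parameter fit, duplicates.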
Recombinant human TDO comprising amino acids 19-407, sequence (P48775 19-406 limits assumed): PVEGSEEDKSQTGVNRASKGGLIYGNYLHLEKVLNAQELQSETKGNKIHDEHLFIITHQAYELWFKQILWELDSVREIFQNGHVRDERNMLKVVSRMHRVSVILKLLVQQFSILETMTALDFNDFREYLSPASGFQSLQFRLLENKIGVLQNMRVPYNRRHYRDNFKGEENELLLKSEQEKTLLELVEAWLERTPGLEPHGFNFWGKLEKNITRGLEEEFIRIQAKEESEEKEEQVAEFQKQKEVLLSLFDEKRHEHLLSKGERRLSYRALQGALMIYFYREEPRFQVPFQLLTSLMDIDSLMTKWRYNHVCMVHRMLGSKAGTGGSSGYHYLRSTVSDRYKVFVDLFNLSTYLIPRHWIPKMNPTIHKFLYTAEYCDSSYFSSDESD

Recombinant full-length human IDO1, sequence (P14902 whole entry): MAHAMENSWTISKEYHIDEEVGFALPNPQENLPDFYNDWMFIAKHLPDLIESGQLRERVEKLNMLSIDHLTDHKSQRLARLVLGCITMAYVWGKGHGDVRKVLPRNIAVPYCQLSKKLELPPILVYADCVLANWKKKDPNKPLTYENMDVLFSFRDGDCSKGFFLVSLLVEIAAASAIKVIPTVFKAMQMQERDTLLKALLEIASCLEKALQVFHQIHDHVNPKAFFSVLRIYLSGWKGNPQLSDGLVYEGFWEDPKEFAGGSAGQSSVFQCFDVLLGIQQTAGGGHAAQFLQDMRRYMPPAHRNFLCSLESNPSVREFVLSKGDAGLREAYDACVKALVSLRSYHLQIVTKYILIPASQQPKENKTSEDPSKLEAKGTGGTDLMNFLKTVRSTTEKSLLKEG

Take `Cc1sc2cncn2c1C(O)c1ccc(N(C)C)cc1` (racemic) [Example 58, rac-(4-Dimethylamino-phenyl)-(2-methyl-imidazo[5,1-b]thiazol-3-yl)-methanol]: the IC50 was 1430 nM in experiment [1] and > 10200 nM in experiment [2].
The matching figures for `Cn1cc(C(O)c2c(C3CC3)sc3cncn23)nn1` (racemic) [Example 192, rac-(2-Cyclopropyl-imidazo[5,1-b]thiazol-3-yl)-(1-methyl-1H-[1,2,3]triazol-4-yl)-methanol]: 590 nM and > 10200 nM.
Turning to `CCc1sc2cncn2c1C(O)CC1CCCC1` (racemic) [Example 179, rac-2-Cyclopentyl-1-(2-ethyl-imidazo[5,1-b]thiazol-3-yl)-ethanol], the IC50 in experiment [1] stood at 28.9 nM; in experiment [2], 203 nM.
The matching figures for `OC(c1cn(C2CCCCC2)nn1)c1c(C2CC2)sc2cncn12` (racemic) [Example 197, rac-(1-Cyclohexyl-1H-[1,2,3]triazol-4-yl)-(2-cyclopropyl-imidazo[5,1-b]thiazol-3-yl)-methanol]: 287 nM and > 10200 nM.
In the same order, the values of `OC(CC1CCCC1)c1c(C(F)(F)F)sc2cncn12` (racemic) [Example 111, rac-2-Cyclopentyl-1-(2-trifluoromethyl-imidazo[5,1-b]thiazol-3-yl)-ethanol] are 101 nM and 2430 nM.
In the same order, the values of `Cc1cc(-c2sc3cncn3c2C(O)C2CCCCC2)cs1` (racemic) [Example 153, rac-Cyclohexyl-[2-(5-methyl-thiophen-3-yl)-imidazo[5,1-b]thiazol-3-yl]-methanol] are 766 nM and 854 nM.
Regarding `OC(CC12CCC(CC1)C2)c1c(C2CC2)sc2cncn12` (racemic) [Example 22, rac-2-Bicyclo[2.2.1]hept-1-yl-1-(2-cyclopropyl-imidazo[5,1-b]thiazol-3-yl)-ethanol], the IC50 in experiment [1] stood at 33.7 nM; in experiment [2] it was 177 nM.
The matching figures for `OC(c1cccs1)c1c(Br)sc2cncn12` (racemic) [Example 32, rac-(2-Bromo-imidazo[5,1-b]thiazol-3-yl)-thiophen-2-yl-methanol]: 63.4 nM and 643 nM.
The matching figures for `Cc1sc2cncn2c1[C@@H](O)C1CCCCC1` [Example 6a, (S)-Cyclohexyl-(2-methyl-imidazo[5,1-b]thiazol-3-yl)-methanol]: 37.3 nM and 60.4 nM.
Take `Cc1ccc(C(O)c2c(C3CC3)sc3cncn23)cc1` (racemic) [Example 51, rac-(2-Cyclopropyl-imidazo[5,1-b]thiazol-3-yl)-p-tolyl-methanol]: the IC50 in experiment [1] is 48.4 nM; in experiment [2] it was 1460 nM.
Regarding `OC(c1c(C2CC2)sc2cncn12)C1CCC(C2CCC2)CC1` (racemic) [Example 103, rac-(4-Cyclobutyl-cyclohexyl)-(2-cyclopropyl-imidazo[5,1-b]thiazol-3-yl)-methanol], the results for the IC50 in experiment [1] and in experiment [2] were 70.1 nM and 1780 nM, respectively.
Turning to `OC(c1c(C2CC2)sc2cncn12)C1CCC(Cc2ccccc2)C1` (stereo not drawn) [Example 77, (3-Benzyl-cyclopentyl)-(2-cyclopropyl-imidazo[5,1-b]thiazol-3-yl)-methanol], the IC50 in experiment [1] stood at 91.2 nM; in experiment [2], 3900 nM.
The matching figures for `OC(c1c([C@@H]2C[C@H]2F)sc2cncn12)C1CCCCC1` (relative stereo) [Example 187, Cyclohexyl-[2-(trans-2-fluoro-cyclopropyl)-imidazo[5,1-b]thiazol-3-yl]-methanol]: 18.5 nM and 2260 nM.
The matching figures for `CC(CC(O)c1c(C2CC2)sc2cncn12)C1CCCCC1` (stereo not drawn) [Example 65, 3-Cyclohexyl-1-(2-cyclopropyl-imidazo[5,1-b]thiazol-3-yl)-butan-1-ol]: 124 nM and 931 nM.
The matching figures for `OC(c1c(C2CC2)sc2cncn12)C1CCCC1c1ccccc1` (stereo not drawn) [Example 83, (2-Cyclopropyl-imidazo[5,1-b]thiazol-3-yl)-(2-phenyl-cyclopentyl)-methanol]: 296 nM and 5200 nM.
`OC(c1c[nH]nn1)c1c(C2CC2)sc2cncn12` (racemic) [Example 200, rac-(2-Cyclopropyl-imidazo[5,1-b]thiazol-3-yl)-(1H-[1,2,3]triazol-4-yl)-methanol]: the IC50 in experiment [1] was 1950 nM; in experiment [2] it was > 10200 nM.
The matching figures for `OC(c1c(C(F)(F)F)sc2cncn12)C1CCCC1` (racemic) [Example 132, rac-Cyclopentyl-(2-trifluoromethyl-imidazo[5,1-b]thiazol-3-yl)-methanol]: 44.3 nM and 591 nM.
Take `OC(CC1CCCCC1)c1c(-c2ccccc2)sc2cncn12` (racemic) [Example 93, rac-2-Cyclohexyl-1-(2-phenyl-imidazo[5,1-b]thiazol-3-yl)-ethanol]: the figures for the IC50 in experiment [1] and in experiment [2] were 296 nM and 496 nM, respectively.
The matching figures for `C=Cc1sc2cncn2c1C(O)CC1CCCCC1` (stereo not drawn) [Example 97, 2-Cyclohexyl-1-(2-vinyl-imidazo[5,1-b]thiazol-3-yl)-ethanol]: 10.5 nM and 62.6 nM.
The matching figures for `OC(c1c(C2CCC2)sc2cncn12)C1CCCCC1` (racemic) [Example 7, rac-(2-Cyclobutylimidazo[5,1-b]thiazol-3-yl)(cyclohexyl)methanol]: 94.2 nM and 324 nM.
In the same order, the values of `CCC1CCC(CC(O)c2c(C3CC3)sc3cncn23)CC1` (racemic) [Example 142, rac-1-(2-Cyclopropyl-imidazo[5,1-b]thiazol-3-yl)-2-(4-ethyl-cyclohexyl)-ethanol] are 85.8 nM and 2000 nM.
Regarding `C=Cc1sc2cncn2c1[C@@H](O)C1CCCCC1` [Example 68a, (S)-Cyclohexyl-(2-vinyl-imidazo[5,1-b]thiazol-3-yl)-methanol], the IC50 in experiment [1] was 4.63 nM; in experiment [2], 11.6 nM.
In the same order, the values of `OC(CC1CCCCCC1)c1c(C2CC2)sc2cncn12` (racemic) [Example 28, rac-2-Cycloheptyl-1-(2-cyclopropyl-imidazo[5,1-b]thiazol-3-yl)-ethanol] are 24.3 nM and 470 nM.
In the same order, the values of `OC(c1c(C2CC2)sc2cncn12)C1CCC2(CCCC2)CC1` (racemic) [Example 70, rac-(2-Cyclopropyl-imidazo[5,1-b]thiazol-3-yl)-spiro[4.5]dec-8-yl-methanol] are 72.1 nM and 746 nM.
In the same order, the values of `OC(CC1CCC(C2CCCC2)CC1)c1c(C2CC2)sc2cncn12` (racemic) [Example 134, rac-2-(4-Cyclopentyl-cyclohexyl)-1-(2-cyclopropyl-imidazo[5,1-b]thiazol-3-yl)-ethanol] are 757 nM and 2800 nM.
Turning to `OC(c1c(C2CCCC2)sc2cncn12)C1CCCCC1` (racemic) [Example 9, rac-Cyclohexyl(2-cyclopentylimidazo[5,1-b]thiazol-3-yl)methanol], the IC50 amounted to 237 nM in experiment [1] and 193 nM in experiment [2].
On to `CCc1sc2cncn2c1[C@@H](O)CC1CCCCC1` [Example 100a, (S)-2-Cyclohexyl-1-(2-ethyl-imidazo[5,1-b]thiazol-3-yl)-ethanol], for which the results for the IC50 in experiment [1] and in experiment [2] were 7.82 nM and 202 nM, respectively.
